From PubChem BioAssay AID1963843 (Molecular Pharmacology Branch, DTP, NCI, 2024)

Test system: 616215-338-R-J1-PDC complex spheroid viability
Experiment: Anticancer human tumor 616215-338-R-J1-PDC patient-derived colon adenocarcinoma cell line growth inhibition [POLQ]
Conditions: for IC50: curve of first compound; for viability, T/C: stronger effect = lower value
Method in brief: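 Complex spheroid viability model combining PDC tumour cells with endothelial (HUVEC) and MSC stromal cells. Novobiocin, ART-558 or RP6685 were tested singly and in combination with standard and investigational anticancer drugs. Each was titrated in half-log steps from near clinical Cmax, or from 10 microM where Cmax was unknown.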

[1] = second compound 0.0316 µM, first compound 0.0316 µM
[2] = second compound 0.0316 µM, first compound 0.1 µM
[3] = second compound 0.0316 µM, first compound 0.316 µM
[4] = second compound 0.0316 µM, first compound 1 µM
[5] = second compound 0.0316 µM, first compound 3.16 µM
[6] = second compound 0.0316 µM, first compound 10 µM
[7] = second compound 0.1 µM, first compound 0.0316 µM
[8] = second compound 0.1 µM, first compound 0.1 µM
[9] = second compound 0.1 µM, first compound 0.316 µM
[10] = second compound 0.1 µM, first compound 1 µM
[11] = second compound 0.1 µM, first compound 3.16 µM
[12] = second compound 0.1 µM, first compound 10 µM
[13] = second compound 0.316 µM, first compound 0.0316 µM
[14] = second compound 0.316 µM, first compound 0.1 µM
[15] = second compound 0.316 µM, first compound 0.316 µM
[16] = second compound 0.316 µM, first compound 1 µM
[17] = second compound 0.316 µM, first compound 3.16 µM
[18] = second compound 0.316 µM, first compound 10 µM
[19] = second compound 1 µM, first compound 0.0316 µM
[20] = second compound 1 µM, first compound 0.1 µM
[21] = second compound 1 µM, first compound 0.316 µM
[22] = second compound 1 µM, first compound 1 µM
[23] = second compound 1 µM, first compound 3.16 µM
[24] = second compound 1 µM, first compound 10 µM
[25] = second compound 3.16 µM, first compound 0.0316 µM
[26] = second compound 3.16 µM, first compound 0.1 µM
[27] = second compound 3.16 µM, first compound 0.316 µM
[28] = second compound 3.16 µM, first compound 1 µM
[29] = second compound 3.16 µM, first compound 3.16 µM
[30] = second compound 3.16 µM, first compound 10 µM
[31] = second compound 10 µM, first compound 0.0316 µM
[32] = second compound 10 µM, first compound 0.1 µM
[33] = second compound 10 µM, first compound 0.316 µM
[34] = second compound 10 µM, first compound 1 µM
[35] = second compound 10 µM, first compound 3.16 µM
[36] = second compound 10 µM, first compound 10 µM
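Also: spheroids exposed to compounds for one week before readout.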
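For viability, T/C in this document: percent viability relative to DMSO vehicle wells taken as 100%.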

`CCc1cc2c(N3CCc4c(cc(Cn5ccnc5)cc4-c4cn(C)nc4C(F)(F)F)C3=O)cc(C)nc2c(OC)n1` + Cc1cccc(N(C)C(=O)C2C(O)CCN2c2nc(C)cc(C(F)(F)F)c2C#N)c1 gave an IC50 (second compound 0.0316 µM) of 2.35 µM, an IC50 (second compound 0.1 µM) of 2.24 µM and an IC50 (second compound 0.316 µM) of 4.28 µM. For the same molecule, the IC50 (second compound 1 µM) was 2.82 µM, the IC50 (second compound 3.16 µM) was greater than 10 µM and the IC50 (second compound 10 µM) was 2.76 µM. It also gave a viability, T/C [1] of 107%, a viability, T/C [2] of 120% and a viability, T/C [3] of 83%. For the same molecule, the viability, T/C [4] was 60.6%, the viability, T/C [5] was 46.4% and the viability, T/C [6] was 45.7%. For the same molecule, the viability, T/C [7] was 108%, the viability, T/C [8] was 104% and the viability, T/C [9] was 74.8%. The viability, T/C [10] was 57.4%, the viability, T/C [11] was 49.6% and the viability, T/C [12] was 43.2%. For the same molecule, the viability, T/C [13] was 99.8%, the viability, T/C [14] was 103% and the viability, T/C [15] was 81%. For the same molecule, the viability, T/C [16] was 70.8%, the viability, T/C [17] was 45.7% and the viability, T/C [18] was 49.1%. For the same molecule, the viability, T/C [19] was 105%, the viability, T/C [20] was 102% and the viability, T/C [21] was 85%. The viability, T/C [22] was 66.1%, the viability, T/C [23] was 48% and the viability, T/C [24] was 40%. For the same molecule, the viability, T/C [25] was 106%, the viability, T/C [26] was 102% and the viability, T/C [27] was 90.2%. The viability, T/C [28] was 58%, the viability, T/C [29] was 54.6% and the viability, T/C [30] was 50.8%. The viability, T/C [31] was 106%, the viability, T/C [32] was 92.3% and the viability, T/C [33] was 81.7%. It also gave a viability, T/C [34] of 61.1%, a viability, T/C [35] of 48% and a viability, T/C [36] of 40.4%.
For `CCc1cc2c(N3CCc4c(cc(Cn5ccnc5)cc4-c4cn(C)nc4C(F)(F)F)C3=O)ccnc2c(OC)n1` + Cc1cccc(N(C)C(=O)C2C(O)CCN2c2nc(C)cc(C(F)(F)F)c2C#N)c1, the IC50 (second compound 0.0316 µM) was 8.63 µM, the IC50 (second compound 0.1 µM) was 6.35 µM and the IC50 (second compound 0.316 µM) was 4.78 µM. It also gave an IC50 (second compound 1 µM) of 6.68 µM, an IC50 (second compound 3.16 µM) of 3.9 µM and an IC50 (second compound 10 µM) of 5.8 µM. It also gave a viability, T/C [1] of 98%, a viability, T/C [2] of 102% and a viability, T/C [3] of 86.4%. The viability, T/C [4] was 69.4%, the viability, T/C [5] was 63.9% and the viability, T/C [6] was 46.8%. For the same molecule, the viability, T/C [7] was 107%, the viability, T/C [8] was 106% and the viability, T/C [9] was 83.2%. The viability, T/C [10] was 84.2%, the viability, T/C [11] was 52.7% and the viability, T/C [12] was 46.3%. For the same molecule, the viability, T/C [13] was 106%, the viability, T/C [14] was 102% and the viability, T/C [15] was 94%. It also gave a viability, T/C [16] of 70.8%, a viability, T/C [17] of 54.5% and a viability, T/C [18] of 43.8%. It also gave a viability, T/C [19] of 113%, a viability, T/C [20] of 104% and a viability, T/C [21] of 88.4%. The viability, T/C [22] was 74.1%, the viability, T/C [23] was 58.8% and the viability, T/C [24] was 45.2%. For the same molecule, the viability, T/C [25] was 97%, the viability, T/C [26] was 94.8% and the viability, T/C [27] was 95%. It also gave a viability, T/C [28] of 63%, a viability, T/C [29] of 59.3% and a viability, T/C [30] of 41.3%. For the same molecule, the viability, T/C [31] was 98%, the viability, T/C [32] was 88.6% and the viability, T/C [33] was 90.9%. The viability, T/C [34] was 61.7%, the viability, T/C [35] was 60.7% and the viability, T/C [36] was 43.5%.
